Assays:
[1] = tested on: MKN-45 (human gastric cancer) cell line; test: Cell proliferation assay (MTT), MKN-45; assay type: cell-based; conditions: 48 h exposure, n = 3 (mean ± SD), read-out: Proliferative inhibition IC50, MKN-45
Protocol: (§1) The anti-proliferative activities of the prepared compounds (12a-12s) were evaluated against A549, MCF-7 and MKN-45 cell lines by MTT assay in vitro. Briefly, tumour cells were cultured to log phase in RPMI 1640 medium supplemented with 10% foetal bovine serum (FBS). After diluting to 2 × 10^4 cells mL^−1 with the complete medium, 100 µL of the obtained cell suspension was added to each well of 96-well culture plates. Subsequently, incubation was performed at 37 °C in 5% CO2 for 24 h before the anti-proliferative assessment. Tested samples at pre-set concentrations were added to 6 wells with cabozantinib as a positive reference. After 48 h exposure period, 40 µL of PBS containing 2.5 mg mL^−1 of MTT was added to each well. Four hours later, 100 µL extraction solution (10% SDS-5% isobutyl alcohol-0.010M HCl) was added. After an overnight incubation at 37°C, the absorbance was measured at a wavelength of 570 nm with an ELISA microplate reader. All compounds were tested three times in each tumour cell lines. The IC50 values were the averages of three determinations and calculated by concentration-response curve fitting method.
(§2) All the synthesised compounds […] were evaluated for their antiproliferation activities against A549 (human lung cancer), MCF-7 (human breast cancer) and MKN-45 (human gastric cancer) cell lines by MTT assay, using cabozantinib as the positive control.

[2] = tested on: MCF-7 (human breast cancer) cell line; test: Cell proliferation assay (MTT), MCF-7; assay type: cell-based; conditions: MCF7, 48 h exposure, n = 3 (mean ± SD), read-out: Proliferative inhibition IC50, MCF-7
Protocol: as §1, §2

[3] = biological target: T1, c-Met kinase (Homo sapiens, UniProt P08581); test: c-Met inhibition assay (Caliper motility shift assay); assay type: biochemical; conditions: n = 3 (mean ± SD)
T1 construct: purchased Carna
T1 sequence (P08581 25-1390): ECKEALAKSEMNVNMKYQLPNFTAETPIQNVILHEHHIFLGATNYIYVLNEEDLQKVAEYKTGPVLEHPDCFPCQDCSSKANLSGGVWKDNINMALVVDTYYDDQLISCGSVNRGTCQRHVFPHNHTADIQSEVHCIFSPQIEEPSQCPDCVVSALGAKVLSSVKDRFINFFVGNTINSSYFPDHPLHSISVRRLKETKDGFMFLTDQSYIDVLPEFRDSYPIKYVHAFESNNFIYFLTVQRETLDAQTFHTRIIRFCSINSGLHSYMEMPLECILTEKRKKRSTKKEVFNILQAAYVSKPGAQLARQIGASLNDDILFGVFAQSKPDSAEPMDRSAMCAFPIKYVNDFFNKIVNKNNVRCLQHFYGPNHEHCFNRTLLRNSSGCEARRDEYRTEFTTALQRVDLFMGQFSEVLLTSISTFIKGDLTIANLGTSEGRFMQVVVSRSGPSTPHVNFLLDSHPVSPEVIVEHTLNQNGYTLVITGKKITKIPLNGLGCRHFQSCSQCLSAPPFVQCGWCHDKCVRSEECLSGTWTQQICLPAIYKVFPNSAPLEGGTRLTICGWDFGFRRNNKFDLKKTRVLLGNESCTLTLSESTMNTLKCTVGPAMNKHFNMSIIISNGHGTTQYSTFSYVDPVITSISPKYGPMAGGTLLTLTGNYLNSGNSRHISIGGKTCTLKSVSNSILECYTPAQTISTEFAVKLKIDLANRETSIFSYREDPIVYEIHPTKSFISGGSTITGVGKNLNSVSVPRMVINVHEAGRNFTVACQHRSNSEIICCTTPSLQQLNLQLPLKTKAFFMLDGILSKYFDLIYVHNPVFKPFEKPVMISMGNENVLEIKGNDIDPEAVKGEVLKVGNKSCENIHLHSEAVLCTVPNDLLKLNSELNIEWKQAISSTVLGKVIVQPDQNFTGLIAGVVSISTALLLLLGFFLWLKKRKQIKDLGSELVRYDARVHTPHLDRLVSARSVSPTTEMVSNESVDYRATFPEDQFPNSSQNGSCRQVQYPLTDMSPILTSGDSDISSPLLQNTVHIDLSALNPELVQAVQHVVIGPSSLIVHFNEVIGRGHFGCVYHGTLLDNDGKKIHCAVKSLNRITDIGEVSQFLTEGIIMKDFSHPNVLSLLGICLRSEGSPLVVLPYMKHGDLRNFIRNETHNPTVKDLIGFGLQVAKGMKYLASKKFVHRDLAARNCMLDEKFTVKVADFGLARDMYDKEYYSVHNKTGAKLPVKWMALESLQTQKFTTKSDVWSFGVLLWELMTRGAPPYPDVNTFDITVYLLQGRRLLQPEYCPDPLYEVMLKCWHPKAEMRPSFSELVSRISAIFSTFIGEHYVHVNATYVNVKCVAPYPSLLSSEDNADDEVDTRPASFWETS
Protocol: A Caliper motility shift assay was applied to test the potency of synthesised compounds against c-Met kinase. Briefly, the compounds were dissolved in DMSO (Sigma) at 0.5 mM concentration, and then were diluted 50× to the final desired highest inhibitor concentration (10 μM) in reaction by DMSO. For all compounds, 100 μL of the diluted compound solution in tubes was transferred to a well on a 96-well plate (Corning) and was serially diluted 10× by transferring 10 μL dilution to 90 μL DMSO in the next well. 100 μL DMSO was added to two empty wells in the same 96-well plate for no compound control and no enzyme control. The plate was marked as source plate. 10 μL of compound solution from source plate was transferred to a new 96-well plate as the intermediate plate. […] After that, 5 μL solution from each well of the intermediate plate was transferred to a 384-well plate (Corning) as the assay plate in duplicates.c-Met kinase (Carna) was added in 1× kinase base buffer to prepare 2.5× enzyme solution, and FAM-labled peptide (GL Biochem) and ATP (Sigma) were added in 1× kinase base buffer to prepare 2.5× peptide solution. 10 μL of 2.5× enzyme solution was added to each well of the 384-well assay plate that already contained 5 μL of compound in 10% DMSO, and then incubated at room temperature for 10 min. […] The data were collected on Caliper and the conversion data were copied from Caliper program.
IC50 values were calculated from three independent experiments by fitting the data in XLfit with the following equation: Y = Bottom + (Top-Bottom)/(1 + (IC50/X)^HillSlope).

[4] = tested on: A549 (human lung cancer) cell line; test: Cell proliferation assay (MTT), A549; assay type: cell-based; conditions: 48 h exposure, n = 3 (mean ± SD), read-out: Proliferative inhibition IC50, A549
Protocol: as §1, §2

COc1cc2nccc(Nc3ccc4nc(-c5ccc(C)cc5)[nH]c4c3)c2cc1OC [Compound 12l, 6,7-Dimethoxy-N-(2-(p-tolyl)-1H-benzo[d]imidazol-6-yl)quinolin-4-amine]
melting point: 316 to 319 °C
IC50 [1]: 31.8 ± 1.4 µM
IC50 [2]: 24 ± 0.9 µM
c-Met inhibition % Inhibition (10 μΜ) ([3]; 10 μΜ compound): 69.0 ± 1.2%
IC50 [3]: 0.32 ± 0.07 µM
IC50 [4]: 27.3 ± 1.6 µM
